From patent publication US20240009234A1, “SYNTHETIC OLIGOMERIZATION SYSTEMS FOR CELL ENGINEERING AND THERAPY” (The Board of Trustees of the Leland Stanford Junior …, priority 2020, published 2024)

Legend:
Details in all cases: 8-24 hr
[1] = tested on: nanobody-fused chimeric transmembrane receptor polypeptide (Nb-TLR5); experiment: NFκβ activity of Nb-TLR5 receptor-engineered Jurkat-NFκβ-GFP reporter cells; format: cell-based
Procedure: (§1) In each of the following examples, standard molecular cloning techniques were performed to assemble nucleic acid sequences encoding components of chimeric transmembrane receptor polypeptides onto plasmid backbones. Plasmids were transfected into HEK293T cells to create lentivirus. Lentivirus was transduced into all cell lines to create receptor engineered cells. Presence of the receptor was determined by a fluorescent reporter. Receptor engineered Jurkat cells or Jurkat-NFκβ-GFP and/or Jurkat-NFAT-GFP reporter cells were treated with activator for 8-24 hr. Receptor activity was measured by antibody staining or GFP expression via flow cytometry.
The receptor ECD was also expanded beyond endogenous proteins to engineered nanobodies that bind to small molecules. For example, FIG. 8 presents results for a nanobody-fused chimeric transmembrane receptor polypeptide (Nb-TLR5) engineered and activated by treatment with the asymmetric monomeric small molecule, caffeine. The graph of FIG. 8 plots NFκβ activity for receptor-engineered Jurkat-NFκβ-GFP reporter cells treated with or without caffeine activator for 8-24 hr.

[2] = tested on: FKBP-TLR5/FRB-TLR5 model receptor system; experiment: NFκβ activity of FKBP-TLR5/FRB-TLR5 heterodimerization system in Jurkat-NFκβ-GFP reporter cells; format: cell-based, human
Procedure: as §1
The receptor was further modified to activate upon heterodimerization (A/B system) by dimerizing two different receptor constructs. FKBP heterodimerizes with FKBP-rapamycin-binding (FRB, protein fragment of human mTOR) with the addition of AP21967 (protein-protein interaction inducing macrocyclic small molecule), and an FKBP-TLR5/FRB-TLR5 model receptor system was engineered and activated with AP21967.

[3] = tested on: truncated FKBP-TLR5 receptors; experiment: NFκβ activity of Jurkat-NFκβ-GFP reporter cells with truncated FKBP-TLR5 receptor constructs; format: cell-based, human
Procedure: as §1
To determine where to truncate the TLR5 ECD such that the binding domain could be redirected to expand the soluble factor repertoire, the ECD was also methodically truncated at specific locations prior to fusing to FKBP. […] The graph of FIG. 3 plots the Nκβ activity for Jurkat-NFKκβ-GFP reporter cells engineered with or without truncated receptor constructs and treated with AP20187 activator for 8-24 hr. The graph of FIG. 4 plots the NFκβ activity for Jurkat-NFκβ-GFP reporter cells engineered with or without truncated receptor constructs and treated with Flagellin activator for 8-24 hr. […]

truncated FKBP-TLR5 receptors, sequence (P62942 2-108 F37V limits assumed): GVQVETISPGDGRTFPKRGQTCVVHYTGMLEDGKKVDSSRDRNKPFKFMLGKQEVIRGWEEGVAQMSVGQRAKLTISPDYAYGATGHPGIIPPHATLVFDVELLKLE

Molecule: Cn1c(=O)c2c(ncn2C)n(C)c1=O [caffeine]
- NFκβ activity (FIG. 8) [1]: activated

Molecule: CO[C@H]1[C@@H](O)[C@H](C)C[C@H](C)/C=C/C=C/C=C(\C)[C@@H](c2c[nH]c3c(C)cccc23)C[C@@H]2CC[C@@H](C)[C@@](O)(O2)C(=O)C(=O)N2CCCC[C@H]2C(=O)O[C@H]([C@H](C)C[C@@H]2CC[C@@H](O)[C@H](OC)C2)C[C@H](O)[C@H](C)/C=C(\C)[C@H]1O [AP21967]
- NFκβ activity (FIG. 7) [2]: intramembrane signal pathway activation

Molecule: flagellin
- receptor activation, NFκβ activity (FIGS. 3-5) [3]: not
